Several values for one entry are separate records, joined by “and”; a condition that tells them apart may be missing. Equal entries are not always repeated.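 Method: 48-hour compound exposure of cells in 96-well plates, five concentrations, linear interpolation of endpoints. GI50 is the concentration that inhibits growth by half. The concentration for full growth arrest is given as TGI.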
Key:
Assay in all cases: NCI tumour cell line growth inhibition, 48 h
UO-31 renal = tested on: UO-31 renal
OVCAR-8 ovarian = tested on: OVCAR-8 ovarian
UACC-257 melanoma = tested on: UACC-257 melanoma
NCI-H460 lung = tested on: NCI-H460 lung
RPMI-8226 leukemia = tested on: RPMI-8226 leukemia
BT-549 breast = tested on: BT-549 breast
SR leukemia = tested on: SR leukemia
HL-60(TB) leukemia = tested on: HL-60(TB) leukemia
MOLT-4 leukemia = tested on: MOLT-4 leukemia
SK-MEL-5 melanoma = tested on: SK-MEL-5 melanoma
RXF 393 renal = tested on: RXF 393 renal
HS 578T breast = tested on: HS 578T breast
MDA-MB-435 = tested on: MDA-MB-435
A549 NSCLC = tested on: A549 NSCLC
HOP-62 NSCLC = tested on: HOP-62 NSCLC
NCI/ADR-RES ovarian = tested on: NCI/ADR-RES ovarian

SMILES | TGI (UO-31 renal) | TGI (OVCAR-8 ovarian) | TGI (UACC-257 melanoma) [µM] | TGI (NCI-H460 lung) | TGI (RPMI-8226 leukemia) | TGI (BT-549 breast) | TGI (SR leukemia) [µM] | GI50 (HL-60(TB) leukemia) [µM] | TGI (HL-60(TB) leukemia) [µM] | TGI (MOLT-4 leukemia) [µM] | GI50 (SK-MEL-5 melanoma) | TGI (SK-MEL-5 melanoma) | TGI (RXF 393 renal) [µM] | GI50 (HS 578T breast) | TGI (HS 578T breast) | TGI (MDA-MB-435) | TGI (A549 NSCLC) | TGI (HOP-62 NSCLC) | TGI (NCI/ADR-RES ovarian)
CSc1ccc2c(cc1=O)[C@@H](NC(=O)c1ccc(N)cc1)CCc1cc(O)c(O)c(O)c1-2 | 33.8 µM and > 100 µM | > 75 µM and 59.1 µM | > 100 | 29.6 µM and 49.7 µM | > 75 µM and 94.2 µM | 38.2 µM and 52.3 µM | > 100 | > 75 | > 75 | > 100 | 21.1 µM and 6.63 µM | 45.5 µM and 28.7 µM | > 100 | 24.3 µM and 10.2 µM | > 75 µM and 43.6 µM | 51 µM and > 100 µM | 49.7 µM and 64.9 µM | 27.8 µM and 34.7 µM | 57.3 µM and 61.6 µM
COc1cc(Cn2c3c(c4cc(O)ccc42)Cc2ccccc2C3=O)cc(OC)c1 | > 100 µM | > 100 µM | > 100 | > 100 µM | 26.5 µM | > 100 µM | 53.3 | – | > 100 | > 100 | – | > 100 µM | > 100 | – | > 100 µM | > 100 µM | > 100 µM | > 100 µM | 66.1 µM
COc1cc(/C=C2\C(=O)N(c3ccccc3)C(c3ccccc3)S2(=O)=O)cc(OC)c1OC (stereo not given) | > 100 µM | > 100 µM | > 100 | > 100 µM | 92.3 µM | > 100 µM | > 100 | – | > 100 | > 100 | – | > 100 µM | 92.2 | – | > 100 µM | > 100 µM | > 100 µM | > 100 µM | > 100 µM
COc1cccc(-c2ccc3c4c2O[C@H]2C(=O)CC[C@@]5(O)[C@@H](C3)N(CC3CC3)CC[C@]425)c1 | 28.3 µM | 34.3 µM | 43.2 | 50.7 µM | 30.9 µM | 35.1 µM | 37.8 | – | 40.5 | 24.7 | – | 28 µM | 21.8 | – | 29.1 µM | 25.6 µM | 35.5 µM | 35.4 µM | 38.8 µM
Cn1cc(NC(=O)c2cc(NC(=O)CN=C(N)N)cn2C)cc1C(=O)NCCC(=N)N | > 100 µM | > 100 µM | > 100 | > 100 µM | > 100 µM | > 100 µM | > 100 | – | > 100 | > 100 | – | > 100 µM | > 100 | – | > 100 µM | > 100 µM | > 100 µM | > 100 µM | > 100 µM
O=c1cc(-c2ccc(F)cc2)[nH]c2ncc(Cl)cc12 | > 100 µM | > 100 µM | > 100 | > 100 µM | 62.4 µM | > 100 µM | 23.7 | – | 15.3 | > 85.6 | – | > 100 µM | 89.2 | – | 85 µM | 9.85 µM | > 100 µM | > 93.2 µM | > 88 µM
Nc1cc2[nH]c(=O)c(=O)[nH]c2cc1N | > 100 µM | > 100 µM | > 100 | > 100 µM | > 100 µM | > 100 µM | > 100 | – | > 100 | > 100 | – | > 100 µM | > 100 | – | > 100 µM | > 100 µM | > 100 µM | > 100 µM | > 100 µM

Source: PubChem BioAssay (NCI)
